# Measurements: article PMC5321434, “Dihydrobenz[e][1,4]oxazepin-2(3H)-ones, a new anthelmintic chemotype immobilising whipworm and reducing infectivity in vivo” (PLoS Neglected Tropical Diseases, 2017)
# System: adult T. muris
# Assay: Ex vivo adult T. muris automated motility assay (primary/secondary screen at 100 μM and dose-response)
# Design: species or system Trichuris muris
# Conditions: 100 μM; for COMBINED_SCREEN_ACTIVITY: combined primary and secondary screen minus log fold change in movement, adult T. muris; for PRIMARY_SCREEN_MINUS_LOG_FOLD_CHANGE_MOVEMENT: primary screen; for PRIMARY_SCREEN_MINUS_LOG_FOLD_CHANGE_MOVEMENT / SECONDARY_SCREEN_MINUS_LOG_FOLD_CHANGE_MOVEMENT: adult T. muris motility; for SECONDARY_SCREEN_MINUS_LOG_FOLD_CHANGE_MOVEMENT: secondary screen
# Method in brief: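 Motility scored after 24 h (37 °C, 5% CO2) by automated imaging of pixel intensity variance, one worm per well, four weekly biological replicates. Worms came from SCID mice infected orally with 200 eggs, harvested day 35; screening at 100 μM final in RPMI-1640/antibiotics, 1% DMSO; curves fitted with four-parameter log-logistic model.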
Compound,COMBINED_SCREEN_ACTIVITY,PRIMARY_SCREEN_MINUS_LOG_FOLD_CHANGE_MOVEMENT,SECONDARY_SCREEN_MINUS_LOG_FOLD_CHANGE_MOVEMENT
Cn1cc(-c2ccc3c(c2)COCC(=O)N3Cc2ccccc2Cl)cn1 [Compound 113],0.5472,0.5472,
Cn1cc(-c2ccc3c(c2)N(Cc2ccccc2Cl)C(=O)COC3)cn1 [Compound 114],1.278,1.278,
Cc1ccc(CN2C(=O)COCc3cc(-c4cccc(C#N)c4)ccc32)cc1 [Compound 115],-2.656,-2.656,
O=C1COCc2ccc(-c3cccc(F)c3)cc2N1CCN1CCOCC1 [Compound 116],0.5451,0.5451,
O=C(O)c1cccc(-c2ccc3c(c2)N(Cc2ccccc2)C(=O)COC3)c1 [Compound 117],-1.457,-1.457,
COCc1cccc(-c2ccc3c(c2)N(Cc2ccccc2)C(=O)COC3)c1 [Compound 118],10.5493,10.5493,
COc1ccccc1-c1ccc2c(c1)COCC(=O)N2CCc1ccccc1 [Compound 119],-0.8266,-0.8266,
COc1ccccc1-c1ccc2c(c1)COCC(=O)N2Cc1ccc(C)cc1 [Compound 120],-1.664,-1.664,
COc1ccccc1-c1ccc2c(c1)N(CCc1ccccc1)C(=O)COC2 [Compound 121],1.0336,1.0336,
Cc1ccccc1CN1C(=O)COCc2ccc(-c3cccc(CO)c3)cc21 [Compound 122],-0.2289,-1.039,0.5816
Cc1ccc(CN2C(=O)COCc3cc(-c4cccc(CO)c4)ccc32)cc1 [Compound 123],-0.1619,-0.1619,
O=C1COCc2cc(-c3ccncc3)ccc2N1Cc1ccc2c(c1)OCO2 [Compound 124],0.4678,0.4678,
O=C1COCc2cc(-c3cccnc3)ccc2N1Cc1ccc2c(c1)OCO2 [Compound 125],-0.9605,-0.9605,
COc1cccc(CN2C(=O)COCc3cc(-c4cccc(O)c4)ccc32)c1 [Compound 126],1.18,1.18,
Cn1cc(-c2ccc3c(c2)COCC(=O)N3Cc2ccc3c(c2)OCO3)cn1 [Compound 127],0.2993,-0.5635,1.162
COc1cc(F)ccc1-c1ccc2c(c1)COCC(=O)N2Cc1ccccc1 [Compound 128],3.2501,3.2501,
COc1ccc(F)cc1-c1ccc2c(c1)N(Cc1ccccc1)C(=O)COC2 [Compound 129],3.716,3.716,
COc1cccc(CN2C(=O)COCc3cc(-c4cccc(F)c4)ccc32)c1 [Compound 130],0.2069,0.2069,
COc1cccc(CN2C(=O)COCc3ccc(-c4cccc(F)c4)cc32)c1 [Compound 131],-0.1165,-0.1165,
N#Cc1cccc(-c2ccc3c(c2)N(CCN2CCOCC2)C(=O)COC3)c1 [Compound 132],-2.183,-2.183,
O=C1COCc2ccc(-c3cccc(O)c3)cc2N1Cc1ccccc1Cl [Compound 133],-0.006244,-0.006244,
Cc1ccc(-c2ccc3c(c2)N(CCN2CCOCC2)C(=O)COC3)cc1C [Compound 134],-2.044,-2.044,
COc1ccccc1-c1ccc2c(c1)COCC(=O)N2CCN1CCOCC1 [Compound 135],-1.035,-1.035,
COc1ccccc1-c1ccc2c(c1)N(CCN1CCOCC1)C(=O)COC2 [Compound 136],-0.8162,-0.8162,

Compound,COMBINED_SCREEN_ACTIVITY,PRIMARY_SCREEN_MINUS_LOG_FOLD_CHANGE_MOVEMENT,SECONDARY_SCREEN_MINUS_LOG_FOLD_CHANGE_MOVEMENT
CC(=O)Nc1cccc(-c2ccc3c(c2)N(Cc2ccccc2)C(=O)COC3)c1 [Compound 137],5.935,5.935,
O=C1COCc2cc(-c3cc(F)cc(F)c3)ccc2N1CCN1CCOCC1 [Compound 138],-0.5965,-0.5965,
O=C1COCc2ccc(-c3cc(F)cc(F)c3)cc2N1CCN1CCOCC1 [Compound 139],-1.36,-1.36,
O=C1COCc2cc(-c3cccc(O)c3)ccc2N1Cc1ccc2c(c1)OCO2 [Compound 140],-0.481,-0.481,
COc1cccc(CN2C(=O)COCc3cc(-c4ccccc4OC)ccc32)c1 [Compound 141],-1.328,-1.328,
COc1cccc(CN2C(=O)COCc3cc(-c4cccc(CO)c4)ccc32)c1 [Compound 142],-0.6408,-0.6408,
COc1cccc(CN2C(=O)COCc3cc(-c4ccc(OC)nc4)ccc32)c1 [Compound 143],-1.1304,-1.1304,
COc1cc(F)ccc1-c1ccc2c(c1)COCC(=O)N2CCc1ccccc1 [Compound 144],-1.769,-1.769,
COc1ccc(F)cc1-c1ccc2c(c1)COCC(=O)N2CCc1ccccc1 [Compound 145],-1.739,-1.739,
COc1cc(F)ccc1-c1ccc2c(c1)N(CCc1ccccc1)C(=O)COC2 [Compound 146],-0.8154,-0.8154,
COc1ccc(F)cc1-c1ccc2c(c1)N(CCc1ccccc1)C(=O)COC2 [Compound 147],0.4002,0.4002,
CC(=O)Nc1cccc(-c2ccc3c(c2)N(CC2CCCCC2)C(=O)COC3)c1 [Compound 149],6.083,10.5493,1.617
COc1ccccc1-c1ccc2c(c1)COCC(=O)N2Cc1ccccc1Cl [Compound 150],-1.328,-1.328,
COc1ccccc1-c1ccc2c(c1)N(Cc1ccccc1Cl)C(=O)COC2 [Compound 151],-1.249,-1.249,
CC(C)c1cccc(-c2ccc3c(c2)N(CCN2CCOCC2)C(=O)COC3)c1 [Compound 152],5.995,5.995,
COc1ccc(-c2ccc3c(c2)N(Cc2ccccc2Cl)C(=O)COC3)cn1 [Compound 153],0.2455,0.2455,
O=C1COCc2cc(-c3cccc(CO)c3)ccc2N1Cc1cc(F)cc(F)c1 [Compound 154],-1.197,-1.197,
COc1ccccc1-c1ccc2c(c1)COCC(=O)N2Cc1cc(F)cc(F)c1 [Compound 155],-0.9332,-0.9332,
COc1ccc(-c2ccc3c(c2)N(Cc2cc(F)cc(F)c2)C(=O)COC3)cn1 [Compound 156],-1.039,-1.039,
COc1ccc(-c2ccc3c(c2)N(CCN2CCOCC2)C(=O)COC3)c(C)c1 [Compound 157],-1.37,-1.37,
COCc1cccc(-c2ccc3c(c2)N(CCN2CCOCC2)C(=O)COC3)c1 [Compound 158],-1.5946,-1.5946,
O=C1COCc2ccc(-c3cccnc3)cc2N1Cc1ccc(C(F)(F)F)cc1 [Compound 159],11.6591,10.6993,12.6188
O=C1COCc2ccc(Br)cc2N1Cc1ccc(C(F)(F)F)cc1 [Compound 160],8.379,8.379,
COc1cc(F)ccc1-c1ccc2c(c1)COCC(=O)N2CCN1CCOCC1 [Compound 161],-1.617,-1.617,
